Measured values: patent publication US20230338568A1, “NOVEL ISOMERIC COMPOUNDS COMPRISING A RING-OPENED THIOSUCCINIMIDE GROUP, AN OLIGOPEPTIDE FRAGMENT AND A CHIRAL MOIETY” (priority 2020, published 2023)

What was measured:
[1] = tested on: HER2 positive cell HCC1954; test: Cytotoxicity of α-ADCs in HER2 positive cell HCC1954 (CellTiter-Glo); type: cell-based, Human; settings: HER2 positive HCC1954, 72 h
Experimental: (§1) Cell viability is tested using CellTiter-Glo® Luminescent Kit (Promega, Cat.# G7573) read by a Biotek Cytation3 Imaging reader.
(§2) Study design was shown as in Table 21 and Table 22. […] Cell vitality formula: Viability = (RLU (X) - RLU (Puro))/(RLU (Control) - RLU (Puro)) ^∗ 100%. A logistic model (4-parameter) will be used for data processing, IC50 calculation and curve fitting by Prism 6 software.

[2] = tested on: HER2 negative cell MDA-MB-468; test: Cytotoxicity of α-ADCs in HER2 negative cell MDA-MB-468 (CellTiter-Glo); type: cell-based; settings: HER2 negative MDA-MB-468, 72 h
Experimental: as §1, §2

COc1cc2cc(c1Cl)N(C)C(=O)C[C@H](OC(=O)[C@H](C)N(C)C(=O)CCS)[C@]1(C)O[C@H]1[C@H](C)[C@@H]1C[C@@](O)(NC(=O)O1)[C@H](OC)/C=C/C=C(\C)C2 [DM1]
IC50 [1]: 4.2 nM | IC50 [2]: 1.5 nM
